Where two headings read alike, the source gives them in different places.
What was measured:
[1] = tested on: U-937 (hystiocytic lymphoma); assay: 72-hour IC50 determination for non-adherent cells using MTS; format: cell-based, human
Procedure: (§1) Certain synthesized compounds were screened for their ability to induce death in two human cancer cell lines: U-937 (leukemic monocyte lymphoma) and HeLa (cervical cancer).
(§2) Cells were grown in media supplemented with fetal bovine serum (FBS) and antibiotics ([…]). Specifically, experiments were performed using the following cell lines and media compositions: U-937, HeLa, H460, and 786-O (RPMI-1640+10% FBS), and MCF7 (EMEM+10% FBS). Cells were incubated at 37° C. in a 5% CO2, 95% humidity atmosphere.
(§3) In a 96-well plate, compounds were pre-added as DMSO stocks in triplicate to achieve a final concentration of 1%. DMSO and cell-free wells served as the live and dead control, respectively. U-937 (5,000 cells/well) cells were distributed in 100 μL media to the compound-containing plate. After 72 hours, cell viability was assessed by adding 20 μL of a PMS/MTS solution (Cory, A. H.; Owen, T. C.; Barltrop, J. A.; Cory, J. G. Cancer Commun. 1991, 3, 207) to each well, allowing the dye to develop at 37° C. until the live control had processed MTS, and reading the absorbance at λ=490 nm. IC50 values were determined from three or more independent experiments using TableCurve (San Jose, Calif.).

[2] = tested on: HeLa (cervical carcinoma); assay: 72-hour IC50 determination for adherent cells using sulforhodamine B (SRB); format: cell-based, human
Procedure: as §1, §2
(§4) Adherent cells (HeLa, H460, 786-O, and MCF7) were added into 96-well plates (5,000 cells/well for HeLa cell line; 2,000 cells/well for H460, 786-O, and MCF7 cell lines) in 100 μL media and were allowed to adhere for 2-3 hours. Compounds were solubilized in DMSO as 100× stocks, added directly to the cells (100 μL final volume), and tested over a range of concentrations in triplicate (1% DMSO final) on a half-log scale. Concentrations tested ranged from […] to 10 μM, depending on the potency of the compound. DMSO and cell-free wells served as the live and dead control, respectively. After 72 hours of continuous exposure, the plates were evaluated using the SRB colorimetric assay as described previously (Vichai, V.; Kirtikara, K. Nature Prot. 2006, 1, 1112). Briefly, media was removed from the plate, and cells were fixed by the addition of 100 μL cold 10% trichloroacetic acid in water. After incubating at 4° C. for an hour, the plates were washed in water and allowed to dry. Sulforhodamine B was added as a 0.057% solution in 1% acetic acid (100 μL), and the plates were incubated at room temperature for 30 minutes, washed in 1% acetic acid, and allowed to dry. The dye was solubilized by adding 10 mM Tris base solution (pH 10.5, 200 μL) and incubating at room temperature for 30 minutes. Plates were read at λ=510 nm. IC50 values were determined from three or more independent experiments using TableCurve (San Jose, Calif.).

human cancer cell lines = assay: Anticancer activity in human cancer cell lines, not tied to one cell line; format: cell-based; conditions: for anticancer activity, in words: human cancer cell lines, 72-hour exposure
Procedure: as §1
Certain provided compounds were tested in culture against a panel of three supplementary human cancer cell lines representing three additional tumor histologies (H460, lung carcinoma; 786-O, renal carcinoma; MCF-7, breast carcinoma). As shown in Table E1-2, the ETPs retain their potency across the cell lines. In some embodiments, a provided compound is active in all cell lines. In some embodiments, a provide compound can be used to selectively target certain cells and/or cancers. […] Without the intention to be limited, Applicant notes that certain cell lines could be more sensitive to provided compounds; for example, U-937 and HeLa are slightly more sensitive to the ETPs than the other three cell lines.
as §4, §3

[3] = Homo sapiens, U-937, 72-hour exposure, MTS, error is standard deviation of the mean, n ≧ 3, read-out: U-937, 72-hour IC50 (Table E1-1)
[4] = Homo sapiens, HeLa, 72-hour exposure, SRB, error is standard deviation of the mean, n ≧ 3, read-out: HeLa, 72-hour IC50 (Table E1-1)
[5] = Homo sapiens, U-937, 72 h, read-out: U-937, 72-hour IC50 (Table E1-1)
[6] = Homo sapiens, HeLa, 72 h, read-out: HeLa, 72-hour IC50 (Table E1-1)
[7] = 72-hour exposure, MTS, error is standard deviation of the mean, n ≧ 3, read-out: U-937, 72-hour IC50 (Table E1-1)
[8] = 72-hour exposure, SRB, error is standard deviation of the mean, n ≧ 3, read-out: HeLa, 72-hour IC50 (Table E1-1)

SMILES | IC50 [1, 7] [µM] | IC50 [2, 8] [µM] | further results
CN1C(=O)[C@@]2(S)C[C@]3(c4c[nH]c5ccccc45)c4ccccc4N(S(=O)(=O)c4ccccc4)[C@@H]3N2C(=O)[C@H]1O [Compound 48, C3-(Indol-3′-yl) C11-thiohemiaminal] | – | – | IC50 [1, 3]: > 10 µM; IC50 [2, 4]: > 10 µM
CN1C(=O)C(=O)N2C(=C[C@]3(c4c[nH]c5ccccc45)c4ccccc4N[C@H]23)C1=O [Compound 52, (+)-Gliocladin C] | – | – | IC50 [1, 5]: > 10 µM; IC50 [2, 6]: > 10 µM
C[C@H]1C(=O)N2[C@@H](C[C@]3([C@]45C[C@H]6C(=O)N(C)[C@@H](C)C(=O)N6[C@H]4N(S(=O)(=O)c4ccccc4)c4ccccc45)c4ccccc4N(S(=O)(=O)c4ccccc4)[C@H]23)C(=O)N1C [Compound 21] | > 1 | > 10 | –
COCCOCS[C@H]1C(=O)N2[C@H]3N(S(=O)(=O)c4ccccc4)c4ccccc4[C@@]3(c3cn(C(=O)OC(C)(C)C)c4ccccc34)C[C@]2(SCOCCOC)C(=O)N1C [Compound 42, C3-(N-Boc-indol-3′-yl)bis(S-MEM)ether] | > 10 | > 10 | –
CN1C(=O)C23CC4(c5c[nH]c6ccccc56)c5ccccc5N(S(=O)(=O)c5ccccc5)[C@@H]4N2C(=O)[C@H]1SCS3 (some centres unmarked) [Compound 38, C3-(Indol-3′-yl)dithioacetal] | – | – | anticancer activity, in words (human cancer cell lines): active; IC50 [1, 3]: 0.082 ± 0.028 µM; IC50 [2, 4]: 0.465 ± 0.037 µM
CC(=O)OC[C@@]1(OC(=O)C(C)C)C(=O)N2[C@H]3Nc4ccccc4[C@@]3([C@]34C[C@]5(SSSC(c6ccccc6)(c6ccccc6)c6ccccc6)C(=O)N(C)[C@](COC(C)=O)(OC(=O)C(C)C)C(=O)N5[C@H]3Nc3ccccc34)C[C@]2(SSSC(c2ccccc2)(c2ccccc2)c2ccccc2)C(=O)N1C [Compound 20] | > 10 | > 10 | –
CC(C)[Si](O[C@@H]1C(=O)N2C(=C[C@]3(c4c[nH]c5ccccc45)c4ccccc4N(C(=O)C(F)(F)F)[C@H]23)C(=O)N1C)(C(C)C)C(C)C [Compound 53] | – | – | IC50 [1, 3]: > 10 µM; IC50 [2, 4]: > 10 µM
CN1CC(=O)N2C(CC3(c4c[nH]c5ccccc45)c4ccccc4N(S(=O)(=O)c4ccccc4)C23)C1=O (centres unmarked) [Compound 59, C3-(indol-3′-yl)-pyrrolidinoindolne] | > 10 | > 10 | –
CC(C)C(=O)O[C@@H]1C(=O)N2[C@H]3Nc4ccccc4[C@@]3(c3c[nH]c4ccccc34)C[C@]2(SC(=O)C(C)C)C(=O)N1C [Compound 51] | > 10 | > 1 | –
CN1C(=O)[C@]2(O)C[C@]3([C@]45C[C@@]6(O)C(=O)N(C)[C@](C)(O)C(=O)N6[C@H]4N(S(=O)(=O)c4ccccc4)c4ccccc45)c4ccccc4N(S(=O)(=O)c4ccccc4)[C@@H]3N2C(=O)[C@@]1(C)O [Compound 22] | > 1 | > 10 | –
CCC[C@]12CC34SC(=S)SC(C)(C(=O)N3C1N(S(=O)(=O)c1ccccc1)c1ccccc12)N(C)C4=O (some centres unmarked) [Compound 67, C3-Propyl dithiepanethiones] | – | – | anticancer activity, in words (human cancer cell lines): inactive; IC50 [1, 3]: > 1 µM; IC50 [2, 4]: > 1 µM
CN1C(=O)[C@@]2(SCc3ccccc3)C[C@]3(c4cn(C(=O)OC(C)(C)C)c5ccccc45)c4ccccc4N(S(=O)(=O)c4ccccc4)[C@@H]3N2C(=O)[C@@H]1SCc1ccccc1 [Compound 43, C3-(N-Boc-indol-3′-yl)bis(benzylthioether)] | – | – | IC50 (human cancer cell lines; Homo sapiens, cell line not named in the sentence (U-937 and HeLa screened), read-out: IC50 (did not display any anticancer activity)): > 10 µM; IC50 [1, 3]: > 10 µM; IC50 [2, 4]: > 10 µM
CN1C(=O)[C@]23C[C@]4(Br)c5ccccc5N(S(=O)(=O)c5ccccc5)[C@@H]4N2C(=O)[C@H]1SS3 [Compound 34, C3-Bromo epidithiodiketopiperazines] | 0.059 ± 0.023 | 0.55 ± 0.033 | anticancer activity, in words (human cancer cell lines): inactive
CC(C)[Si](O[C@@H]1C(=O)N2[C@H]3N(S(=O)(=O)c4ccccc4)c4ccccc4[C@@]3(c3c[nH]c4ccccc34)C[C@@]2(O)C(=O)N1C)(C(C)C)C(C)C [Compound 57] | > 10 | > 10 | –
COCCOCS[C@H]1C(=O)N2[C@H]3N(S(=O)(=O)c4ccccc4)c4ccccc4[C@@]3(c3cn(C(=O)OC(C)(C)C)c4ccccc34)C[C@]2(S)C(=O)N1C [Compound 47, C3-(N-Boc-indol-3′-yl) S15-MEM ether] | > 10 | > 10 | –
CN1C(=O)[C@@]23C[C@]4(c5cn(C(=O)OC(C)(C)C)c6ccccc56)c5ccccc5N(S(=O)(=O)c5ccccc5)[C@@H]4N2C(=O)[C@@H]1SS3 [Compound 24, C3-(N-Boc-indol-3′-yl) epidithiodiketopiperazine] | – | – | IC50 ([1]; Homo sapiens, U-937, 72 h, read-out: IC50 (U-937)): 0.0028 to 0.0148 µM; IC50 [1, 5]: 0.0059 ± 0.0014 µM; IC50 [2, 6]: 0.075 ± 0.01 µM; IC50 ([2]; Homo sapiens, HeLa, 72 h, read-out: IC50 (HeLa)): 0.022 to 0.075 µM
COCS[C@]12C[C@]3(c4cn(C(=O)OC(C)(C)C)c5ccccc45)c4ccccc4N(S(=O)(=O)c4ccccc4)[C@@H]3N1C(=O)CN(C)C2=O [Compound 49] | > 10 | > 10 | –
CN1C(=O)C23CC4(c5c[nH]c6ccccc56)c5ccccc5N(S(=O)(=O)c5ccccc5)C4N2C(=O)C1(C)SC(=S)S3 (centres unmarked) [Compound 66, C3-(Indo-3′-v)dithiepanethiones] | > 1 | > 1 | anticancer activity, in words (human cancer cell lines): inactive
CC(=O)OC[C@@]1(OC(=O)C(C)C)C(=O)N2[C@H]3N(S(=O)(=O)c4ccccc4)c4ccccc4[C@@]3([C@]34C[C@]5(SSSC(c6ccccc6)(c6ccccc6)c6ccccc6)C(=O)N(C)[C@](COC(C)=O)(OC(=O)C(C)C)C(=O)N5[C@H]3N(S(=O)(=O)c3ccccc3)c3ccccc34)C[C@]2(SSSC(c2ccccc2)(c2ccccc2)c2ccccc2)C(=O)N1C [Compound 19, Dimeric bis(triphenylmethanetrisulfide)] | > 10 | > 10 | –
CS[C@H]1C(=O)N2[C@H]3N(S(=O)(=O)c4ccccc4)c4ccccc4[C@@]3(c3c[nH]c4ccccc34)C[C@]2(SC)C(=O)N1C [Compound 39] | > 10 | > 10 | –
CN1C(=O)[C@]2(O)C[C@]3([C@]45C[C@@]6(O)C(=O)N(C)[C@](C)(O[Si](C)(C)C(C)(C)C)C(=O)N6[C@H]4N(S(=O)(=O)c4ccccc4)c4ccccc45)c4ccccc4N(S(=O)(=O)c4ccccc4)[C@@H]3N2C(=O)[C@@]1(C)O[Si](C)(C)C(C)(C)C [Compound 23] | > 1 | > 10 | –
CS[C@H]1C(=O)N2[C@H]3Nc4ccccc4[C@@]3(c3c[nH]c4ccccc34)C[C@]2(SC)C(=O)N1C [Compound 7, (+)-gliocladin B] | > 10 | > 10 | –
CN1C(=O)[C@]2(O)C[C@]3(c4c[nH]c5ccccc45)c4ccccc4N(S(=O)(=O)c4ccccc4)[C@@H]3N2C(=O)[C@H]1O [Compound 56, C3-(Indol-3′-yl) hexacyclic Diol] | > 10 | > 10 | –
CC(C)[Si](O[C@@H]1C(=O)N2[C@H]3Nc4ccccc4[C@@]3(c3c[nH]c4ccccc34)C[C@@]2(O)C(=O)N1C)(C(C)C)C(C)C [Compound 58] | > 10 | > 10 | –
CC(C)C(=O)O[C@@H]1C(=O)N2[C@H]3N(S(=O)(=O)c4ccccc4)c4ccccc4[C@@]3(c3c[nH]c4ccccc34)C[C@]2(SC(=O)C(C)C)C(=O)N1C [Compound 50] | > 1 | > 1 | –
CN1CC(=O)N2[C@@H](C[C@]3(Br)c4ccccc4N(S(=O)(=O)c4ccccc4)[C@H]23)C1=O [Compound 54] | – | – | IC50 [1, 3]: > 10 µM; IC50 [2, 4]: > 10 µM
